Laboratory results reported in ChEMBL document CHEMBL1141325, “Pinpointing pseurotins from a marine-derived Aspergillus as tools for chemical genetics using a synthetic lethality yeast screen” (2007).
The source made the active and inactive calls. No cut-off for these calls is given here.

Columns and labels:
Saccharomyces cerevisiae [1] = test: Cytotoxicity against wild-type Saccharomyces cerevisiae by yeast halo assay relative to control; format: functional
Saccharomyces cerevisiae [2] = test: Cytotoxicity against wild-type Saccharomyces cerevisiae hof1delta mutant by yeast halo assay relative to control; format: functional

| SMILES | Activity (Saccharomyces cerevisiae [1]) | Activity (Saccharomyces cerevisiae [2]) | inhibition zone (IZ) (Saccharomyces cerevisiae [1]) [mm] | inhibition zone (IZ) (Saccharomyces cerevisiae [2]) [mm] |
| --- | --- | --- | --- | --- |
| CC/C=C\[C@H](O)[C@H](O)C1=C(C)C(=O)[C@]2(O1)C(=O)N[C@@](OC)(C(=O)c1ccccc1)[C@@H]2O | inactive | inactive |  |  |
| CC/C=C\[C@H](OC)[C@H](O)C1=C(C)C(=O)[C@]2(O1)C(=O)N[C@@](OC)(C(=O)c1ccccc1)[C@@H]2O [11-O-METHYLPSEUROTIN A] |  |  | 4 | 9 |
